# Data: patent US10738028B2, “Spiro three-membered ring, spiro five-membered ring peptide deformylase inhibitor and use thereof in antibacteria and anti-tumor” (priority 2016, dated 2020)
# Where two headings read alike, the source gives them in different places.
# Assays:
# Assay type in all cases: cell-based
# [1] = test system: Enterococcus faecalis (EFA); experiment: MIC, two-fold agar dilution (CLSI), clinical isolates
# Summary of the method: (§1)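 Following the American Clinical and Laboratory Standards Institute procedure, agar two-fold dilution served to determine minimum inhibitory concentrations.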
# [2] = test system: Enterococcus faecium (EFM); experiment: as above
# Summary of the method: as §1
# [3] = test system: Escherichia coli (including ESBLs, non-ESBLs); experiment: as above
# Summary of the method: as §1
# [4] = test system: Moraxella catarrhalis (BCA); experiment: as above; settings: for MIC: Moraxella catarrhalis
# Summary of the method: as §1
# [5] = test system: Streptococcus pneoumoniae (SPN); experiment: as above
# Summary of the method: as §1
# [6] = test system: methicillin-resistant Staphylococcus aureus (MRSA); experiment: as above
# Summary of the method: as §1
# [7] = test system: methicillin-resistant Staphylococcus epidermidis (MRSE); experiment: as above
# Summary of the method: as §1
# [8] = test system: methicillin-sensitive Staphylococcus aureus (MSSA); experiment: as above
# Summary of the method: as §1
# [9] = test system: methicillin-sensitive Staphylococcus epidermidis (MSSE); experiment: as above
# Summary of the method: as §1
# [10] = test system: HCT-116 colorectal cancer cell line; experiment: CCK-8 proliferation inhibition; settings: concentration of 30 μM, 72 hours, CCK-8
# Summary of the method: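 Growth inhibition is read by CCK-8 (1:10 dilution) after 72 h of compound exposure. HCT-116 cells grow in McCoy's 5A containing 10% newborn bovine serum at 2000 cells/well, with 1‰ DMSO as vehicle control.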
# [11] = test system: A549 lung cancer cell line; experiment: CCK-8 proliferation inhibition; settings: Homo sapiens, A549, 72 h, concentration of 30 μM
# Description: (§2) 2. The present invention adopts the CCK-8 method to determine the proliferation inhibition effect of the spiro three-membered ring, spiro five-membered ring peptide deformylase inhibitor as described in Examples 1-80 against colorectal cancer cells, lung cancer cells, gastric cancer cells, liver cancer cells, and the like. […] The compound having the best activity synthesized in Example 64 was further tested for its inhibitory activity against other tumor cells including T cell leukemia, acute myeloid leukemia, cervical cancer, breast cancer, prostate cancer and osteosarcoma, and the like (see Table 7).
# (§3) (1) HCT-116 colorectal cancer cell line, A549 lung cancer cell line, MGC-803 gastric cancer cell line, BEL-7402 liver cancer cell line, Jurkat T cell leukemia cell line, HL60 acute myeloid leukemia cell line, Hela cervical cancer cell line, MCF-7 breast cancer cell line, PC3 prostate cancer cell line and SAOS-2 osteosarcoma cell line were made into single cell suspension, 180 μL of which was inoculated into 96-well culture plate, which was cultured overnight in CO2 incubator (37° C., 5% CO2, 95% air).
# (§4) (2) Each of the spiro three-membered ring, spiro five membered ring peptide deformylase inhibitors was dissolved in DMSO, and was further formulated into drug solution with required different final concentration using corresponding cell culture medium. The drug solutions were added to the above cells respectively (20 μL/well), with the control group added with 1‰ DMSO, and cultured in a CO2 incubator for 72 hours.
# (§5) (3) After incubation for 72 hours, the culture solution was decanted, and 100 μL of 1:10 diluted CCK-8 solution was added.
# (§6) Wherein, in step (1), the concentration of the single cell suspension was 2000 cells/well.
# (§7) Wherein, in step (2), HCT-116 cells were cultured in McCoy's 5A medium (containing 10% newborn bovine serum, 1% double antibody); A549 and PC3 cells were cultured in F12 medium (containing 10% newborn bovine serum, 1% double antibody); MGC-803, BEL-7402, SAOS-2, Jurkat and HL60 cells were cultured in 1640 medium (containing 10% newborn bovine serum, 1% double antibody); and MCF-7 and Hela cells were cultured in DMEM high glucose medium (containing 10% newborn bovine serum, 1% double antibody).
# [12] = test system: BEL-7402 liver cancer cell line; experiment: CCK-8 proliferation inhibition; settings: concentration of 30 μM
# Description: as §2, §3, §4, §5, §6, §7
# [13] = test system: MGC-803 gastric cancer cell line; experiment: CCK-8 proliferation inhibition; settings: Homo sapiens, MGC-803, 72 h, concentration of 30 μM
# Description: as §2, §3, §4, §5, §6, §7
structure (smiles),measurement,setting,value
CCCC[C@H](CN(O)C=O)C(=O)N1CC2(CC2)C[C@H]1C(=O)Nc1nccs1 [Example 22],MIC (anti-bacterial activity),[1]; strain EFA 15-1,2 mg/L
same,MIC (anti-bacterial activity),[1]; strain EFA 15-2,2 mg/L
same,MIC (anti-bacterial activity),[1]; strain EFA 15-3,1 mg/L
same,MIC (anti-bacterial activity),[1]; strain EFA 15-4,2 mg/L
same,MIC (anti-bacterial activity),[1]; strain EFA 15-5,2 mg/L
same,MIC (anti-bacterial activity),[1]; strain EFA 15-6,2 mg/L
same,MIC (anti-bacterial activity),[1]; strain EFA 15-9,2 mg/L
same,MIC (anti-bacterial activity),[2]; strain EFM 15-1,0.5 mg/L
same,MIC (anti-bacterial activity),[2]; strain EFM 15-2,2 mg/L
same,MIC (anti-bacterial activity),[2]; strain EFM 15-3,0.25 mg/L
same,MIC (anti-bacterial activity),[2]; strain EFM 15-4,0.5 mg/L
same,MIC (anti-bacterial activity),[2]; strain EFM 15-5,0.25 mg/L
same,MIC (anti-bacterial activity),[2]; strain EFM 15-6,0.5 mg/L
same,MIC (anti-bacterial activity),[3]; strain ECO+ 15-1,16 mg/L
same,MIC (anti-bacterial activity),[3]; strain ECO+ 15-2,64 mg/L
same,MIC (anti-bacterial activity),[3]; strain ECO+ 15-3,32 mg/L
same,MIC (anti-bacterial activity),[3]; strain ECO+ 15-4,32 mg/L
same,MIC (anti-bacterial activity),[3]; strain ECO− 15-1,32 mg/L
same,MIC (anti-bacterial activity),[3]; strain ECO− 15-2,64 mg/L
same,MIC (anti-bacterial activity),[3]; strain ECO− 15-3,64 mg/L
same,MIC (anti-bacterial activity),[3]; strain ECO− 15-4,64 mg/L
same,MIC,"[4]; 7 clinical isolates, range over strains, read-out: Moraxella catarrhalis (n = 7) MIC",0.06 to 0.5 mg/L
same,MIC,"[4]; lowest MIC reached, read-out: minimum inhibitory concentration against Moraxella catarrhalis, as low as",≥ 0.06 mg/L
same,MIC (anti-bacterial activity),[4]; strain BCA 14-1,0.5 mg/L
same,MIC (anti-bacterial activity),[4]; strain BCA 14-4,0.25 mg/L
same,MIC (anti-bacterial activity),[4]; strain BCA 14-5,0.06 mg/L
same,MIC (anti-bacterial activity),[4]; strain BCA 14-6,0.06 mg/L
same,MIC (anti-bacterial activity),[4]; strain BCA 14-7,0.125 mg/L
same,MIC (anti-bacterial activity),[4]; strain BCA 14-8,0.5 mg/L
same,MIC (anti-bacterial activity),[4]; strain BCA 14-10,0.125 mg/L
same,MIC (anti-bacterial activity),[5]; strain SPN 16-2,2 mg/L
same,MIC (anti-bacterial activity),[5]; strain SPN 16-4,0.5 mg/L
same,MIC (anti-bacterial activity),[6]; strain MRSA 15-1,0.06 mg/L
same,MIC (anti-bacterial activity),[6]; strain MRSA 15-2,0.25 mg/L
same,MIC (anti-bacterial activity),[6]; strain MRSA 15-3,0.06 mg/L
same,MIC (anti-bacterial activity),[6]; strain MRSA 15-4,0.25 mg/L
same,MIC (anti-bacterial activity),[7]; strain MRSE 15-1,0.03 mg/L
same,MIC (anti-bacterial activity),[7]; strain MRSE 15-2,0.06 mg/L
same,MIC (anti-bacterial activity),[7]; strain MRSE 15-3,0.125 mg/L
same,MIC (anti-bacterial activity),[7]; strain MRSE 15-7,0.125 mg/L
same,MIC (anti-bacterial activity),[8]; strain MSSA 15-3,0.06 mg/L
same,MIC (anti-bacterial activity),[8]; strain MSSA 15-4,0.06 mg/L
same,MIC (anti-bacterial activity),[8]; strain MSSA 15-5,0.03 mg/L
same,MIC (anti-bacterial activity),[8]; strain MSSA 15-6,0.06 mg/L
same,MIC (anti-bacterial activity),[9]; strain MSSE 15-3,0.06 mg/L
same,MIC (anti-bacterial activity),[9]; strain MSSE 15-4,0.03 mg/L
same,MIC (anti-bacterial activity),[9]; strain MSSE 15-5,0.03 mg/L
same,MIC (anti-bacterial activity),[9]; strain MSSE 15-6,0.03 mg/L
same,inhibition at 30 µM,"[10]; Homo sapiens, HCT-116, 72 h, read-out: HCT116 inhibition rate/%",> 50%
same,HCT116 inhibition rate/%,[10]; 30 µM,52%
same,inhibition at 30 µM,[11],21%
same,inhibition at 30 µM,"[12]; Homo sapiens, Bel-7402, 72 h",> 50%
same,"Inhibition of proliferation, Liver cancer BEL-7402","[12]; 72 hours, 30 µM",51%
same,inhibition at 30 µM,[13],14%
